The values below come from ChEMBL document CHEMBL1147866, “Cyclic monophosphate prodrugs of base-modified 2'-C-methyl ribonucleosides as potent inhibitors of hepatitis C virus RNA replication” (Bioorg Med Chem Lett, 2007).

Each structure is given as a SMILES string.

For series [1], the system named is Bovine viral diarrhea virus 1. The series is described as follows: Antiviral activity against Bovine viral diarrhea virus 1. In kind it is functional, organism-based. Conditions: Bovine viral diarrhea virus isolates and strains.
A further series deals with Hepatitis C virus. Description: Antiviral activity against hepatitis C virus replication. In kind it is functional, organism-based, Hepacivirus hominis.
The nature of series [2]: Metabolic stability in rat plasma after 1 hr. In kind it is ADME, organism-based. Conditions: read-out: Stability.
Another series is filed under the species Homo sapiens. The series is described as follows: Metabolic stability in human plasma after 1 hr. In kind it is ADME, organism-based.
A further series concerns Rhesus monkey. Description: Metabolic stability in monkey plasma after 1 hr. In kind it is ADME, Macaca mulatta.

As a reminder, the EC50 is the concentration that produces a half-maximal response. As to `CN(NS(C)(=O)=O)c1nc(N)nc2c1ncn2[C@@H]1O[C@@H]2OP(=O)(OCCSC(=O)C(C)(C)C)O[C@H]2[C@@]1(C)O` (some centres undefined), the concentration giving a half-maximal response (EC50) in series [1] worked out at 33 nM; in the series with Hepatitis C virus, 22 nM.
In the same order, the values of `CC(C)OC(=O)OCOP1(=O)O[C@H]2O[C@@H](n3cnc4c(N(C)NS(C)(=O)=O)ncnc43)[C@](C)(O)[C@@H]2O1` (some centres undefined) are 420 nM and 463 nM.
The matching figures for `CN(NS(C)(=O)=O)c1ncnc2c1ncn2[C@@H]1O[C@@H]2OP(=O)(OCCSC(=O)C(C)(C)C)O[C@H]2[C@@]1(C)O` (some centres undefined): 245 nM and 145 nM.
The matching figures for `CC(C)OC(=O)OCOP1(=O)O[C@H]2O[C@@H](n3cnc4c(N(C)NS(C)(=O)=O)nc(N)nc43)[C@](C)(O)[C@@H]2O1` (some centres undefined): 216 nM and 163 nM.
Consider `CCCOC(C)(C)C(=O)SCCOP1(=O)O[C@H]2O[C@@H](n3cnc4c(N(C)NS(C)(=O)=O)nc(N)nc43)[C@](C)(O)[C@@H]2O1` (some centres undefined), for which, in series [2], the remaining at 1 h is 4%. Further, the Stability result in the series listed under Homo sapiens and in the series on Rhesus monkey was “Stable” throughout. In addition, the figures for the EC50 (in series [1]; with Hepatitis C virus) were 16 nM and 8 nM, respectively.
With `CN(NS(C)(=O)=O)c1nc(N)nc2c1ncn2[C@@H]1O[C@@H]2OP(=O)(OCOC(=O)C(C)(C)C)O[C@H]2[C@@]1(C)O` (some centres undefined), the values for the concentration giving a half-maximal response (EC50) (in series [1]; in the series with Hepatitis C virus) were 223 nM and 92 nM, respectively.
The matching figures for `CN(NS(C)(=O)=O)c1ncnc2c1ncn2[C@@H]1O[C@@H]2OP(=O)(OCOC(=O)C(C)(C)C)O[C@H]2[C@@]1(C)O` (some centres undefined): 962 nM and 414 nM.
In the same order, the values of `CCCOCC(C)(C)C(=O)SCCOP1(=O)O[C@H]2O[C@@H](n3cnc4c(N(C)NS(C)(=O)=O)ncnc43)[C@](C)(O)[C@@H]2O1` (some centres undefined) are 110 nM and 39 nM.
